melting point: 220 to 225 °C
SMILES: CC(C)NC(=O)c1c(I)cccc1C(=O)Nc1ccc(OCC(F)(F)F)nc1 [Compound 1, 3-iodo-N^2-(1-methylethyl)-N^1-[6-(2,2,2-trifluoroethoxy)-3-pyridinyl]-1,2-benzenedicarboxamide]
